Laboratory results: PubChem BioAssay AID1963843 (Molecular Pharmacology Branch, DTP, NCI, 2024)

Tested on: 616215-338-R-J1-PDC complex spheroid viability
Assay: Anticancer human tumor 616215-338-R-J1-PDC patient-derived colon adenocarcinoma cell line growth inhibition [POLQ]
Settings: for IC50: curve of first compound; for viability, T/C: stronger effect = lower value; active = viability on the fitted dose curve at most 10% of control; inactive = the rest
Procedure, shortened: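 Growth inhibition in 3D: complex spheroids (tumor PDC, HUVEC, MSC) treated with POLQ inhibitor combinations; where Cmax unknown, highest tested concentration 10 microM, except SN-38 at 1 microM.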

[1] = second compound 0.0316 µM, first compound 0.0316 µM
[2] = second compound 0.0316 µM, first compound 0.1 µM
[3] = second compound 0.0316 µM, first compound 0.316 µM
[4] = second compound 0.0316 µM, first compound 1 µM
[5] = second compound 0.0316 µM, first compound 3.16 µM
[6] = second compound 0.0316 µM, first compound 10 µM
[7] = second compound 0.1 µM, first compound 0.0316 µM
[8] = second compound 0.1 µM, first compound 0.1 µM
[9] = second compound 0.1 µM, first compound 0.316 µM
[10] = second compound 0.1 µM, first compound 1 µM
[11] = second compound 0.1 µM, first compound 3.16 µM
[12] = second compound 0.1 µM, first compound 10 µM
[13] = second compound 0.316 µM, first compound 0.0316 µM
[14] = second compound 0.316 µM, first compound 0.1 µM
[15] = second compound 0.316 µM, first compound 0.316 µM
[16] = second compound 0.316 µM, first compound 1 µM
[17] = second compound 0.316 µM, first compound 3.16 µM
[18] = second compound 0.316 µM, first compound 10 µM
[19] = second compound 1 µM, first compound 0.0316 µM
[20] = second compound 1 µM, first compound 0.1 µM
[21] = second compound 1 µM, first compound 0.316 µM
[22] = second compound 1 µM, first compound 1 µM
[23] = second compound 1 µM, first compound 3.16 µM
[24] = second compound 1 µM, first compound 10 µM
[25] = second compound 3.16 µM, first compound 0.0316 µM
[26] = second compound 3.16 µM, first compound 0.1 µM
[27] = second compound 3.16 µM, first compound 0.316 µM
[28] = second compound 3.16 µM, first compound 1 µM
[29] = second compound 3.16 µM, first compound 3.16 µM
[30] = second compound 3.16 µM, first compound 10 µM
[31] = second compound 10 µM, first compound 0.0316 µM
[32] = second compound 10 µM, first compound 0.1 µM
[33] = second compound 10 µM, first compound 0.316 µM
[34] = second compound 10 µM, first compound 1 µM
[35] = second compound 10 µM, first compound 3.16 µM
[36] = second compound 10 µM, first compound 10 µM
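Also: spheroids exposed to compounds for one week before readout.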
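For viability, T/C in this document: percent viability relative to DMSO vehicle wells taken as 100%.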

CC1COCCN1c1cc(C2(S(C)(=N)=O)CC2)nc(-c2ccnc3[nH]ccc23)n1 (stereo not drawn) + Nc1ccc(C#CCN(C(=O)Cc2ncc(C(F)(F)F)cc2C(F)(F)F)c2ccc(F)cc2)nn1
6.77 µM: IC50 (second compound 0.316 µM)
4.98 µM: IC50 (second compound 0.0316 µM)
6.99 µM: IC50 (second compound 3.16 µM)
inactive: viability, T/C [1] 115% | viability, T/C [2] 96.5% | viability, T/C [3] 93% | viability, T/C [4] 93.4% | viability, T/C [5] 56.9% | viability, T/C [6] 32.6% | viability, T/C [7] 93.9% | viability, T/C [8] 104% | viability, T/C [9] 94.3% | viability, T/C [10] 94.7% | viability, T/C [11] 63.1% | viability, T/C [12] 34.7% | viability, T/C [13] 101% | viability, T/C [14] 97.6% | viability, T/C [15] 93.8% | viability, T/C [16] 97.3% | viability, T/C [17] 62.3% | viability, T/C [18] 43.7% | viability, T/C [19] 108% | viability, T/C [20] 101% | viability, T/C [21] 90.9% | viability, T/C [22] 84.7% | viability, T/C [23] 59.9% | viability, T/C [24] 36.5% | viability, T/C [25] 87.5% | viability, T/C [26] 95.3% | viability, T/C [27] 87.4% | viability, T/C [28] 83% | viability, T/C [29] 68.8% | viability, T/C [30] 41.6% | viability, T/C [31] 96.5% | viability, T/C [32] 91.5% | viability, T/C [33] 78.2% | viability, T/C [34] 92.1% | viability, T/C [35] 46.5% | viability, T/C [36] 35.5%
5.39 µM: IC50 (second compound 0.1 µM)
5.38 µM: IC50 (second compound 1 µM)
2.88 µM: IC50 (second compound 10 µM)

CCCS(=O)(=O)Nc1ccc(F)c(C(=O)c2c[nH]c3ncc(-c4ccc(Cl)cc4)cc23)c1F + Nc1ccc(C#CCN(C(=O)Cc2ncc(C(F)(F)F)cc2C(F)(F)F)c2ccc(F)cc2)nn1
6.1 µM: IC50 (second compound 0.1 µM)
6.15 µM: IC50 (second compound 1 µM)
6.35 µM: IC50 (second compound 0.0316 µM)
inactive: viability, T/C [1] 107% | viability, T/C [2] 109% | viability, T/C [3] 105% | viability, T/C [4] 110% | viability, T/C [5] 114% | viability, T/C [6] 11.4% | viability, T/C [7] 107% | viability, T/C [8] 111% | viability, T/C [9] 110% | viability, T/C [10] 109% | viability, T/C [11] 101% | viability, T/C [12] 11.5% | viability, T/C [13] 101% | viability, T/C [14] 104% | viability, T/C [15] 106% | viability, T/C [16] 105% | viability, T/C [17] 102% | viability, T/C [18] 13.8% | viability, T/C [19] 112% | viability, T/C [20] 114% | viability, T/C [21] 101% | viability, T/C [22] 111% | viability, T/C [23] 102% | viability, T/C [24] 11.9% | viability, T/C [25] 111% | viability, T/C [26] 103% | viability, T/C [27] 107% | viability, T/C [28] 102% | viability, T/C [29] 100% | viability, T/C [30] 13% | viability, T/C [31] 109% | viability, T/C [32] 86.3% | viability, T/C [33] 101% | viability, T/C [34] 94.4% | viability, T/C [35] 92.3%
6.14 µM: IC50 (second compound 3.16 µM)
active: viability, T/C [36] 9.03%
6.23 µM: IC50 (second compound 0.316 µM)
5.68 µM: IC50 (second compound 10 µM)

COc1ccc([C@@H](O)c2cc(-c3ncnc4cc(N5CCOCC5)ccc34)c(F)cc2Cl)nn1 + Nc1ccc(C#CCN(C(=O)Cc2ncc(C(F)(F)F)cc2C(F)(F)F)c2ccc(F)cc2)nn1
inactive: viability, T/C [1] 90.8% | viability, T/C [2] 106% | viability, T/C [3] 96% | viability, T/C [4] 93% | viability, T/C [5] 95.8% | viability, T/C [6] 61.9% | viability, T/C [7] 90.6% | viability, T/C [8] 115% | viability, T/C [9] 106% | viability, T/C [10] 94% | viability, T/C [11] 92.3% | viability, T/C [12] 47.7% | viability, T/C [13] 97.4% | viability, T/C [14] 92.1% | viability, T/C [15] 96.9% | viability, T/C [16] 107% | viability, T/C [17] 90.3% | viability, T/C [18] 52.7% | viability, T/C [19] 107% | viability, T/C [20] 118% | viability, T/C [21] 94.5% | viability, T/C [22] 87.2% | viability, T/C [23] 94.4% | viability, T/C [24] 49.8% | viability, T/C [25] 113% | viability, T/C [26] 109% | viability, T/C [27] 93.7% | viability, T/C [28] 85.7% | viability, T/C [29] 77.7% | viability, T/C [30] 47.9% | viability, T/C [31] 103% | viability, T/C [32] 99.9% | viability, T/C [33] 88.7% | viability, T/C [34] 76.5% | viability, T/C [35] 45.8% | viability, T/C [36] 50%
4.73 µM: IC50 (second compound 10 µM)
9.54 µM: IC50 (second compound 0.1 µM)
> 10 µM: IC50 (second compound 0.0316 µM) | IC50 (second compound 0.316 µM) | IC50 (second compound 1 µM) | IC50 (second compound 3.16 µM)

Cn1ncnc1[C@H]1c2n[nH]c(=O)c3cc(F)cc(c23)N[C@@H]1c1ccc(F)cc1 + Nc1ccc(C#CCN(C(=O)Cc2ncc(C(F)(F)F)cc2C(F)(F)F)c2ccc(F)cc2)nn1
inactive: viability, T/C (second compound 0.0316 µM, first compound 0.000316 µM) 104% | viability, T/C (second compound 0.0316 µM, first compound 0.001 µM) 106% | viability, T/C (second compound 0.0316 µM, first compound 0.00316 µM) 99.7% | viability, T/C (second compound 0.0316 µM, first compound 0.01 µM) 95.1% | viability, T/C [1] 88.5% | viability, T/C [2] 86.7% | viability, T/C (second compound 0.1 µM, first compound 0.000316 µM) 112% | viability, T/C (second compound 0.1 µM, first compound 0.001 µM) 91.6% | viability, T/C (second compound 0.1 µM, first compound 0.00316 µM) 107% | viability, T/C (second compound 0.1 µM, first compound 0.01 µM) 113% | viability, T/C [7] 108% | viability, T/C [8] 77.6% | viability, T/C (second compound 0.316 µM, first compound 0.000316 µM) 106% | viability, T/C (second compound 0.316 µM, first compound 0.001 µM) 97.3% | viability, T/C (second compound 0.316 µM, first compound 0.00316 µM) 111% | viability, T/C (second compound 0.316 µM, first compound 0.01 µM) 97.2% | viability, T/C [13] 104% | viability, T/C [14] 83% | viability, T/C (second compound 1 µM, first compound 0.000316 µM) 108% | viability, T/C (second compound 1 µM, first compound 0.001 µM) 99.9% | viability, T/C (second compound 1 µM, first compound 0.00316 µM) 110% | viability, T/C (second compound 1 µM, first compound 0.01 µM) 93.9% | viability, T/C [19] 91.2% | viability, T/C [20] 77.6% | viability, T/C (second compound 3.16 µM, first compound 0.000316 µM) 99.4% | viability, T/C (second compound 3.16 µM, first compound 0.001 µM) 98% | viability, T/C (second compound 3.16 µM, first compound 0.00316 µM) 103% | viability, T/C (second compound 3.16 µM, first compound 0.01 µM) 90.5% | viability, T/C [25] 99.3% | viability, T/C [26] 95.7% | viability, T/C (second compound 10 µM, first compound 0.000316 µM) 94.8% | viability, T/C (second compound 10 µM, first compound 0.001 µM) 98.7% | viability, T/C (second compound 10 µM, first compound 0.00316 µM) 101% | viability, T/C (second compound 10 µM, first compound 0.01 µM) 90.9% | viability, T/C [31] 89.9% | viability, T/C [32] 65.1%
> 0.1 µM: IC50 (second compound 0.0316 µM) | IC50 (second compound 0.1 µM) | IC50 (second compound 0.316 µM) | IC50 (second compound 1 µM) | IC50 (second compound 3.16 µM) | IC50 (second compound 10 µM)
